Measurements from publication PMC2680961, “Homologous desensitization of signalling by the alpha (α) isoform of the human thromboxane A2 receptor: A specific role for nitric oxide signalling” (Biochimica et Biophysica Acta, 2007).
Numbering of substitutions follows the chain as printed.

Assays:
TPα^S331A [1] = biological target: T1, TPα^S331A (Homo sapiens, UniProt P21731, S331A); assay: Agonist-mediated TP phosphorylation in whole cells, HEK.TPα^S331A; format: cell-based; settings: 1 μM U46619 10 min
T1 construct: expressed in transfected cells
T1 sequence (P21731 1-343 S331A): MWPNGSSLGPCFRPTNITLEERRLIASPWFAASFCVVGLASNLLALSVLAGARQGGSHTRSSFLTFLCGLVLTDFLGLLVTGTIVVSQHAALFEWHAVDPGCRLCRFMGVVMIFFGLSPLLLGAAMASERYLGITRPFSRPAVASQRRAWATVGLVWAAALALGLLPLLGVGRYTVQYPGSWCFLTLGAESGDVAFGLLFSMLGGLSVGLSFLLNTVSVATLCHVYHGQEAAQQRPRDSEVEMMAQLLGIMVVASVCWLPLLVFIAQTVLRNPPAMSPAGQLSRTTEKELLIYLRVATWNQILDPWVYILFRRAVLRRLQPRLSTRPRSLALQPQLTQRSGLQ
Experimental: Agonist-mediated TP phosphorylation in whole cells (1.8–2 × 10^6 cells/10 cm dish) was performed essentially as previously described. Briefly, cells were transiently co-transfected with pADVA (10 μg), pCMV:Gαq (25 μg) plus pcDNA:βArrestin2 (25 μg) approximately 48 h prior to labelling. Thereafter, cells were washed once in phosphate-free DMEM, 10% dialysed FBS and were metabolically labelled for 60 min in the same medium (2 ml/10 cm dish) containing 100 μCi/ml [^32P] orthophosphate (8000–9000 Ci/mmol) at 37 °C, 5% CO2. Where appropriate, the PKG kinase inhibitor KT 5823 (50 nM) or its vehicle was added during the labelling period. Thereafter, U46619 (1 μM) or an equivalent volume of vehicle (0.01% ethanol in HBS; 20 μl) were added and cells were incubated for 10 min at 37 °C, 5% CO2. Reactions were terminated by transferring the dishes to ice and aspirating the labelled medium and HA-epitope tagged TP receptors were processed and immunoprecipitated using the anti-HA 101R antibody as previously described. Electroblots were then exposed to Xomat XAR (Kodak) film to detect ^32P-labelled proteins. Thereafter, blots were subject to phosphorimage analysis, and the intensities of agonist-induced phosphorylation were expressed in arbitrary units relative to basal (vehicle-stimulated) levels. In parallel experiments, cells were incubated under identical conditions in the absence of [^32P] orthophosphate; HA-tagged TP receptors were immunoprecipitated from the same cell lines using the anti-HA 101R antibody and immunoblots were screened using the anti-HA 3F10 horseradish peroxidase-conjugated antibody.

TPα^S331A [2] = biological target: T1, TPα^S331A; assay: [3H]SQ29,548 radioligand binding, Scatchard analysis, HEK.TPα^S331A
Experimental: (§1) Cells were harvested by centrifugation at 500×g at 4 °C for 5 min and washed three times with ice-cold Ca^2+/Mg^2+-free phosphate-buffered saline (PBS). TP radioligand binding assays were carried out at 30 °C for 30 min in 100 μl reactions in the presence of 0–40 nM [^3H] […] Protein determinations were carried out using the Bradford assay.
(§2) Radioligand binding and Scatchard analysis data were analysed using GraphPad Prisim V4.0 programme (GraphPad Software Inc., San Diego CA, USA). Statistical analyses were carried out using the unpaired Student's t test using the Statworks Analysis Package. p-values ≤ 0.01 indicated statistically significant differences.

TPα^S340A = biological target: T2, TPα^S340A (Homo sapiens, UniProt P21731, S340A); assay: [3H]SQ29,548 radioligand binding, Scatchard analysis, HEK.TPα^S340A
T2 construct: expressed in transfected cells
T2 sequence (P21731 1-343 S340A): T1 sequence (P21731 1-343 S331A) with A331S, S340A
Experimental: as §1, §2

| Compound | U46619-mediated TPα^S331A phosphorylation relative to basal (vehicle) (TPα^S331A [1]) [fold] | Bmax (pmol/mg protein ± S.E.M.) (TPα^S331A [2]) [pmol/mg protein] | Bmax (pmol/mg protein ± S.E.M.) (TPα^S340A) [pmol/mg protein] |
| --- | --- | --- | --- |
| CCCCC[C@H](O)/C=C/[C@@H]1[C@@H](C/C=C\CCCC(=O)O)[C@H]2CO[C@@H]1C2 [U46619] | 2 |  |  |
| O=C(O)CCC/C=C\C[C@@H]1[C@H](CNNC(=O)Nc2ccccc2)[C@H]2CC[C@@H]1O2 [SQ29,548] |  | 4.00 ± 0.04 | 5.3 ± 0.04 |
